Assay results: patent publication US9498483B2, “2,3,5-trisubstituted thiophene compounds and uses thereof” (priority 2010, dated 2016)
pIC50: −log10 of the molar value.

Assays:
[1] = test system: HCV replicon I389luc-ubi-neo/NS3-3′/ET in ET (Huh-lucubineo-ET) cells; assay: Replicon assay (Biological Example 2), luciferase readout; format: cell-based; settings: Hepatitis C virus
In short: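 EC50 values come from Hill fits of % inhibition of replicon-driven firefly luciferase, relative to no-compound wells. Compounds were serially diluted (10 points, 3-fold, 0.1 nM–50 μM final, 0.5% DMSO) onto ET replicon cells and read after 48 h.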

HCV polymerase = target: T1, HCV polymerase (Hepatitis C virus genotype 1b, UniProt Q9WMX2); assay: Polymerase assay of Biological Example 1 (IC50 values of Table 3); format: biochemical; settings: IC50 values of Table 3, polymerase assay of Biological Example 1; read-out: NS5B-enzyme3
T1 construct: (His)6 (C); made in house; host or cells: XL-1 cells (E. coli, by own knowledge)

[2] = ET cells, luciferase activity 48 hours after compound

Structure (SMILES)	pIC50 [1, 2]	pIC50 (HCV polymerase)	pIC50 ([1]; between 100 nM and 5.0 uM)
O=C(O)c1sc(-c2ccccc2)cc1N1C(=O)CN(S(=O)(=O)c2ccc(-c3ccc(CN4CCOCC4)cc3)nc2)C[C@H]1C1CCCCC1 [Compound 208, 3-{(R)-2-Cyclohexyl-4-[6-(4-morpholin-4-ylmethyl-phenyl)-pyridine-3-sulfonyl]-6-oxo-piperazin-1-yl}-5-phenyl-thiophene-2-carboxylic acid]	≥ 7.00	8.85	–
CC(C)(C)C#Cc1cc(N2C(=O)CN(S(=O)(=O)c3ccc4oc(=O)[nH]c4c3)C[C@H]2C2CCCCC2)c(C(=O)O)s1 [Compound 252, 3-[(R)-2-Cyclohexyl-6-oxo-4-(2-oxo-2,3-dihydro-benzooxazole-5-sulfonyl)-piperazin-1-yl]-5-(3,3-dimethyl-but-1-ynyl)-thiophene-2-carboxylic acid]	–	8.70	5.30 to 7.00
Cc1ccc(-c2cc(N3C(=O)CN(S(=O)(=O)c4ccc(N5CCOC[C@H]5C)nc4)C[C@H]3C3CCCCC3)c(C(=O)O)s2)cc1 [Compound 197, 3-{(R)-2-Cyclohexyl-4-[6-((R)-3-methyl-morpholin-4-yl)-pyridine-3-sulfonyl]-6-oxo-piperazin-1-yl}-5-p-tolyl-thiophene-2-carboxylic acid]	≥ 7.00	8.34	–
CCc1ccc(S(=O)(=O)N2CC(=O)N(c3cc(-c4ccccc4)sc3C(=O)O)C(C3CCCCC3)C2)cc1 (single isomer, unassigned) [Compound 55, 3-[2-Cyclohexyl-4-(4-ethyl-benzenesulfonyl)-6-oxo-piperazin-1-yl]-5-phenyl-thiophene-2-carboxylic acid]	–	7.15	5.30 to 7.00
Cc1ccc(-c2cc(N3C(=O)C(C)(C)OC[C@H]3C3CCCCC3)c(C(=O)O)s2)cc1 [Compound 314, 3-((R)-5-Cyclohexyl-2,2-dimethyl-3-oxo-morpholin-4-yl)-5-p-tolyl-thiophene-2-carboxylic acid]	≥ 7.00	8.22	–
C[C@H]1CN(c2ccc(S(=O)(=O)N3CC(=O)N(c4cc(-c5ccccc5)sc4C(=O)O)[C@H](C4CCCCC4)C3)cn2)CCN1C(=O)OC(C)(C)C [Compound 162, (S)-4-{5-[(R)-4-(2-Carboxy-5-phenyl-thiophen-3-yl)-3-cyclohexyl-5-oxo-piperazine-1-sulfonyl]-pyridin-2-yl}-2-methyl-piperazine-1-carboxylic acid tert-butyl ester]	≥ 7.00	8.70	–
O=C(O)c1sc(-c2ccc(F)cc2)cc1N1C(=O)CN(S(=O)(=O)c2ccc(N3CCOCC3)nc2)C[C@H]1C1CCCCC1 [Compound 189, 3-[(R)-2-Cyclohexyl-4-(6-morpholin-4-yl-pyridine-3-sulfonyl)-6-oxo-piperazin-1-yl]-5-(4-fluoro-phenyl)-thiophene-2-carboxylic acid]	≥ 7.00	9.00	–
CC(C)(C)C#Cc1cc(N2C(=O)CCC2C2CCCCC2)c(C(=O)O)s1 (centres unmarked) [Compound 220, 3-(2-Cyclohexyl-5-oxo-pyrrolidin-1-yl)-5-(3,3-dimethyl-but-1-ynyl)-thiophene-2-carboxylic acid]	–	7.82	5.30 to 7.00
CN(c1ccc(S(=O)(=O)N2CC(=O)N(c3cc(-c4ccccc4)sc3C(=O)O)C(C3CCCCC3)C2)cn1)C1CCCCC1 (centres unmarked) [Compound 91, 3-{2-Cyclohexyl-4-[6-(cyclohexyl-methyl-amino)-pyridine-3-sulfonyl]-6-oxo-piperazin-1-yl}-5-phenyl-thiophene-2-carboxylic acid]	≥ 7.00	7.92	–
CC(C)(C)OC(=O)N[C@H]1CCCN(c2ccc(S(=O)(=O)N3CC(=O)N(c4cc(-c5ccccc5)sc4C(=O)O)[C@H](C4CCCCC4)C3)cn2)C1 [Compound 158, 3-[(R)-4-((S)-3-tert-Butoxycarbonylamino-3,4,5,6-tetrahydro-2H-[1,2′]bipyridinyl-5′-sulfonyl)-2-cyclohexyl-6-oxo-piperazin-1-yl]-5-phenyl-thiophene-2-carboxylic acid]	≥ 7.00	8.70	–
CC1C(=O)N(c2cc(-c3ccccc3)sc2C(=O)O)C(C2CCCCC2)CN1S(=O)(=O)c1ccc(N2CCOCC2)nc1 (centres unmarked) [Compound 128, 3-[6-Cyclohexyl-3-methyl-4-(6-morpholin-4-yl-pyridine-3-sulfonyl)-2-oxo-piperazin-1-yl]-5-phenyl-thiophene-2-carboxylic acid]	–	8.05	5.30 to 7.00
Cc1ccc(S(=O)(=O)N2CC(=O)N(c3cc(C#CC(C)(C)C)sc3C(=O)O)C(C3CCCCC3)C2)cc1 (centres unmarked) [Compound 166, 3-[2-Cyclohexyl-6-oxo-4-(toluene-4-sulfonyl)-piperazin-1-yl]-5-(3,3-dimethyl-but-1-ynyl)-thiophene-2-carboxylic acid]	≤ 5.30	6.01	–
CC(C)(C)c1ccc(S(=O)(=O)N2CC(=O)N(c3cc(-c4ccccc4)sc3C(=O)O)C(C3CCCCC3)C2)cc1 (centres unmarked) [Compound 105, 3-[4-(4-tert-Butyl-benzenesulfonyl)-2-cyclohexyl-6-oxo-piperazin-1-yl]-5-phenyl-thiophene-2-carboxylic acid]	–	8.70	5.30 to 7.00
N#Cc1ccccc1-c1ccc(S(=O)(=O)N2CC(=O)N(c3cc(-c4ccccc4)sc3C(=O)O)[C@H](C3CCCCC3)C2)cn1 [Compound 213, 3-{(R)-4-[6-(2-Cyano-phenyl)-pyridine-3-sulfonyl]-2-cyclohexyl-6-oxo-piperazin-1-yl}-5-phenyl-thiophene-2-carboxylic acid]	≥ 7.00	9.00	–
O=C(O)c1sc(-c2ccccc2)cc1N1C(=O)CN(S(=O)(=O)c2ccc(NC3CCCCC3)nc2)CC1C1CCCCC1 (centres unmarked) [Compound 75, 3-[2-Cyclohexyl-4-(6-cyclohexylamino-pyridine-3-sulfonyl)-6-oxo-piperazin-1-yl]-5-phenyl-thiophene-2-carboxylic acid]	≥ 7.00	8.10	–
CC(C)(C)OC(=O)N1CCN(c2ccc(S(=O)(=O)N3CC(=O)N(c4cc(-c5ccccc5)sc4C(=O)O)[C@H](C4CCCCC4)C3)cn2)C[C@@H]1CO [Compound 161, (R)-4-{5-[(R)-4-(2-Carboxy-5-phenyl-thiophen-3-yl)-3-cyclohexyl-5-oxo-piperazine-1-sulfonyl]-pyridin-2-yl}-2-hydroxymethyl-piperazine-1-carboxylic acid tert-butyl ester]	≥ 7.00	9.00	–
CN(C)CCNc1ccc(S(=O)(=O)N2CC(=O)N(c3cc(-c4ccccc4)sc3C(=O)O)C(C3CCCCC3)C2)cn1 (centres unmarked) [Compound 81, 3-{2-Cyclohexyl-4-[6-(2-dimethylamino-ethylamino)-pyridine-3-sulfonyl]-6-oxo-piperazin-1-yl}-5-phenyl-thiophene-2-carboxylic acid]	≥ 7.00	8.05	–
C[C@@H]1CN(c2ccc(S(=O)(=O)N3CC(=O)N(c4cc(-c5ccccc5)sc4C(=O)O)[C@H](C4CCCCC4)C3)cn2)C[C@H](C)N1 [Compound 150, 3-{(R)-2-Cyclohexyl-4-[6-((3R,5S)-3,5-dimethyl-piperazin-1-yl)-pyridine-3-sulfonyl]-6-oxo-piperazin-1-yl}-5-phenyl-thiophene-2-carboxylic acid]	≥ 7.00	8.40	–
Cn1ccc(S(=O)(=O)N2CC(=O)N(c3cc(-c4ccc(Cl)cc4)sc3C(=O)O)[C@H](C3CCCCC3)C2)n1 [Compound 284, 5-(4-Chloro-phenyl)-3-[(R)-2-cyclohexyl-4-(1-methyl-1H-pyrazole-3-sulfonyl)-6-oxo-piperazin-1-yl]-thiophene-2-carboxylic acid]	≥ 7.00	8.52	–
